From ChEMBL document CHEMBL4334516, “Kinase Chemodiversity from the Arctic: The Breitfussins” (J Med Chem, 2019)
≈ marks a conversion by molar mass, not a printed value.

Columns and labels:
[1] = biological target: T1, Mitogen-activated protein kinase kinase kinase 9 (Homo sapiens, UniProt P80192); assay: Inhibition of MLK1 (unknown origin) assessed as residual enzyme activity at 1 uM by [33P]-ATP filter binding kinase assay relative to control
[2] = biological target: Serine/threonine-protein kinase 17A (Homo sapiens) (UniProt Q9UEE5); assay: Binding affinity to wild-type human partial length DRAK1 (R32 to E363 residues) expressed in bacterial expression system assessed as residual binding level at 10 uM by active-site directed competition binding assay based Kinomescan method relative to control
[3] = biological target: T2, Mitogen-activated protein kinase kinase kinase 7 (Homo sapiens) (UniProt O43318); assay: Inhibition of TAK1 (unknown origin) assessed as residual enzyme activity at 50 uM by [33P]-ATP filter binding kinase assay relative to control
T2 sequence (whole entry): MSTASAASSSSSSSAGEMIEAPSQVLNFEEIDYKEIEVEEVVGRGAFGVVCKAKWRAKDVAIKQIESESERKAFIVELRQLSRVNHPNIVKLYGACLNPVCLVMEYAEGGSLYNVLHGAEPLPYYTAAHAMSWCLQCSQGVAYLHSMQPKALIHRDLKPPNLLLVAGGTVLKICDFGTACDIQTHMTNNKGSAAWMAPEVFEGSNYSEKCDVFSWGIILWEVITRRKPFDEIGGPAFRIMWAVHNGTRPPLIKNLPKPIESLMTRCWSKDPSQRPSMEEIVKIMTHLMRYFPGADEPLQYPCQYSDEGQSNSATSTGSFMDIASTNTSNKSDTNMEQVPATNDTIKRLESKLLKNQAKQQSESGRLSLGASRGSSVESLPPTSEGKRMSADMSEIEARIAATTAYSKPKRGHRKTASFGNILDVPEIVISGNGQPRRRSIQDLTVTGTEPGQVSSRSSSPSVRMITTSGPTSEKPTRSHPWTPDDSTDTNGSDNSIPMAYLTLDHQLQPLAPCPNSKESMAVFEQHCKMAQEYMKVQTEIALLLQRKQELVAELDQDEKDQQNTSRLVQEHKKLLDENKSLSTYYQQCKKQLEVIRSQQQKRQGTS

[4] = biological target: Casein kinase I isoform epsilon (Homo sapiens, UniProt P49674); assay: Binding affinity to wild-type human full length CSNK1E (M1 to K416 residues) expressed in bacterial expression system by active-site directed competition binding assay based Kinomescan method
[5] = biological target: T3, Serine/threonine-protein kinase pim-1 (Homo sapiens, UniProt P11309); assay: Binding affinity to wild-type human partial length PIM1 (A15 to K313 residues) expressed in bacterial expression system assessed as residual binding level at 10 uM by active-site directed competition binding assay based Kinomescan method relative to control
[6] = Toxicity in zebrafish embryos assessed as survival at 14 uM after 72 hrs (reference value: 95%); set-up: species or system Danio rerio; conditions: in vivo
[7] = biological target: T1, Mitogen-activated protein kinase kinase kinase 9; assay: Inhibition of MLK1 (unknown origin) assessed as residual enzyme activity at 50 uM by [33P]-ATP filter binding kinase assay relative to control
[8] = biological target: T3, Serine/threonine-protein kinase pim-1; assay: Binding affinity to wild-type human partial length PIM1 (A15 to K313 residues) expressed in bacterial expression system by active-site directed competition binding assay based Kinomescan method
[9] = biological target: T4, Serine/threonine-protein kinase 17B (Homo sapiens, UniProt O94768); assay: Binding affinity to wild-type human full length DRAK2 (M1 to C372 residues) expressed in bacterial expression system by active-site directed competition binding assay based Kinomescan method
T4 sequence (O94768 whole entry): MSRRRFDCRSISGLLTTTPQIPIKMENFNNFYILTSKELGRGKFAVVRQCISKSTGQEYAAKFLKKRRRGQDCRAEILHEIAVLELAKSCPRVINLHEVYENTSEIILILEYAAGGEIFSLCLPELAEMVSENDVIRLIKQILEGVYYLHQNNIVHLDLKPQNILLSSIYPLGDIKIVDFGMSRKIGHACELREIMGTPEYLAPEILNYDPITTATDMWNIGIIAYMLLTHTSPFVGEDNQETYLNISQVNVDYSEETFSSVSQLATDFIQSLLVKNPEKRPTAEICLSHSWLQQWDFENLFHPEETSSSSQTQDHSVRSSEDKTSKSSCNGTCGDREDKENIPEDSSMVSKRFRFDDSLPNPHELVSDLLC

[10] = Toxicity in zebrafish embryos assessed as induction of heart edema by measuring unaffected embryos level at 1.4 uM after 72 hrs (reference value: 100%); assay type: tissue-based, Danio rerio; conditions: in vivo
[11] = biological target: Myosin light chain kinase family member 4 (Homo sapiens, UniProt Q86YV6); assay: Binding affinity to wild-type human partial length MYLK4 (V79 to S380 residues) expressed in bacterial expression system by active-site directed competition binding assay based Kinomescan method
HepG2 = assay: Cytotoxicity in human HepG2 cells assessed as reduction in cell viability incubated for 72 hrs by SRB assay; conditions: HepG2, 72 h
[12] = Unbound fraction in mouse plasma at 5 uM incubated for 6 hrs at 37 degC by LC-MS analysis based equilibrium dialysis; assay type: ADME, cell-free
[13] = Kinetic solubility in pH 7.4 aqueous buffer at 500 uM by spectrophotometry; assay type: physicochemical; conditions: read-out: Kinetic_solubility
[14] = Toxicity in zebrafish embryos assessed as survival at 0.1 uM after 72 hrs (reference value: 95%); set-up: species or system Danio rerio; conditions: in vivo
[15] = biological target: Mitogen-activated protein kinase 15 (Homo sapiens) (UniProt Q8TD08); assay: Inhibition of ERK8 (unknown origin) assessed as residual enzyme activity at 50 uM by [33P]-ATP filter binding kinase assay relative to control
BT-20 = assay: Cytotoxicity in human BT20 cells assessed as reduction in cell viability incubated for 72 hrs by SRB assay; conditions: BT-20, 72 h
[16] = biological target: T5, Mitogen-activated protein kinase kinase kinase 11 (Homo sapiens, UniProt Q16584); assay: Binding affinity to wild-type human partial length MLK3 (I77 to W399 residues) expressed in bacterial expression system assessed as residual binding level at 10 uM by active-site directed competition binding assay based Kinomescan method relative to control
[17] = biological target: Cyclin-G-associated kinase (Homo sapiens, UniProt O14976); assay: Binding affinity to wild-type human partial length GAK (G13 to Y338 residues) expressed in bacterial expression system by active-site directed competition binding assay based Kinomescan method
Aurora kinase B = Aurora kinase B (Homo sapiens, UniProt Q96GD4); assay: Binding affinity to wild-type human partial length AURKB (D25 to A303 residues) expressed in mammalian expression system assessed as residual binding level at 10 uM by active-site directed competition binding assay based Kinomescan method relative to control
MCF7 = assay: Cytotoxicity in human MCF7 cells assessed as reduction in cell viability incubated for 72 hrs by SRB assay; conditions: MCF7, 72 h
PBMC = assay: Cytotoxicity in human PBMC assessed as reduction in cell viability incubated for 72 hrs by SRB assay; assay type: cell-based
MDA-MB-436 = assay: Cytotoxicity in human MDA-MB-436 cells assessed as reduction in cell viability incubated for 72 hrs by SRB assay; conditions: MDA-MB-436, 72 h
[18] = biological target: T5, Mitogen-activated protein kinase kinase kinase 11; assay: Inhibition of MLK3 (unknown origin) assessed as residual enzyme activity at 5 uM by [33P]-ATP filter binding kinase assay relative to control

Q: Which results are given for `COc1cc2c(-c3cnc(-c4ccc[nH]4)o3)c[nH]c2cc1Br`?
A: Activity [1]: 26%; Activity [2]: 2.9%; Activity [3]: 7%; Kd [4]: 3300 nM; Activity [5]: 9.5%; survival at 72 h, 14 µM [6]: 5%; Activity [7]: 5%; Kd [8]: 1200 nM; Kd [9]: 390 nM; Activity [10]: 100%; Kd [11]: 430 nM; IC50 (HepG2): 3000 nM; Fu [12]: 0.3%; solubility kinetic at 500 µM [13]: 156 µM (≈ 55.9 µg/mL); survival at 72 h, 0.1 µM [14]: 100%; Activity [15]: 9%; IC50 (BT-20): > 30000 nM; Activity [16]: 56%; Kd [17]: 440 nM; Activity (Aurora kinase B): 50%; IC50 (MCF7): 770 nM; Activity (PBMC): Non-Toxic; IC50 (MDA-MB-436): > 30000 nM

Q: With `COc1cc(Br)cc2[nH]cc(-c3cnc(-c4ccc[nH]4)o3)c12` as the compound, how does the Activity [18] read?
A: 7%
